Marks after values point to notes of the source that are not given here.

Test [1] addresses T1, human PrRP receptor GPR10 (Homo sapiens, UniProt P49683).
T1 construct: host or cells: CHO cells
T1 sequence (P49683 1-370): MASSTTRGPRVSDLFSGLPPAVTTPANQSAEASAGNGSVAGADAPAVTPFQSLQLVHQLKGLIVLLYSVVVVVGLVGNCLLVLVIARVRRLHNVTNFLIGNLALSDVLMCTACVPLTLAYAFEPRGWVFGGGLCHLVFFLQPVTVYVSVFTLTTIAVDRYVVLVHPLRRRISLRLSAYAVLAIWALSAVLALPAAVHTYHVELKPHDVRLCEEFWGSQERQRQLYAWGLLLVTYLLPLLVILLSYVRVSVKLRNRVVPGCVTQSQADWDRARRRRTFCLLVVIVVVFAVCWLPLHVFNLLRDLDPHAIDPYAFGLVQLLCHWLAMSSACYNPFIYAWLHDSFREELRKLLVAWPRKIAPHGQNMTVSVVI
Briefly: Competitive binding in CHO cells transfected with human GPR10 (human 125I-PrRP31). Summed up:
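GPR10-transfected CHO cells (40-80 thousand/well) incubated 60 min at room temperature with 5×10^-11 mol·l^-1 human 125I-PrRP31 and unlabeled analog at 10^-11 to 10^-4 mol·l^-1 in Tris binding buffer pH 7.4. Cells solubilized in 0.1 mol/l NaOH, γ-counted; one-site nonlinear regression fit.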

For test [2], the system named is diabetic db/db mice. Briefly: IPGTT after 14 days administration to diabetic db/db mice. Particulars: 5 mg/kg SC twice a day for 14 days, vs saline. The test is classed as in vivo. As to the method: Then, mice were fasted overnight and IPGTT was performed. After initial blood glucose measurement, 2 g/kg glucose solution was administered IP and glucose followed every hour for 7 hours. Glucose level is shown at the end of the experiment (420 min).
Db/db male mice and their respective controls were acclimatized after arrival, housed 2-3 mice per cage, and used in the experiment at age 11-12 weeks. Mice had free access to food and water, and were subjected to a 14-day experiment. […] The body weight of the mice was followed simultaneously. Following 14 days of treatment, mice were fasted overnight and IPGTT was performed. After initial blood glucose measurement, 2 g/kg glucose solution was administered IP, and glucose levels were measured every hour for 7 hours.

Test [3] concerns C57BL/6 mice. Description: IPGTT after acute administration in lean mice. Particulars: lean C57BL/6 mice, 5 mg/kg SC, vs saline. Type of test: in vivo. How it is done:
IPGTT was performed in overnight fasted male C57BL/6 mice.
Intraperitoneal glucose tolerance test (IPGTT) was performed in overnight fasted male C57BL/6 mice (AnLab, Praha, Czech Republic) at age of 12 weeks. […] 15 min later, 2 g/kg glucose solution was administered IP. Blood glucose was then measured at 15, 30, 60, 120 min from glucose injection using a glucometer (Glucocard, Arkray, Kyoto, Japan).
IPGTT was performed in overnight fasted male C57BL/6 mice, Blood glucose levels were measured at the beginning and after subcutaneous (SC—beneath the skin) administration of palm-PrRP31 (5 mg/kg SC) or saline (n=7) at time 30, 60, 90 and 120 min post injection. […] Regarding the error bars in the graphs *P<0.05, **P<0.01. IPGTT glucose levels were lower in mice given analog 43 instead of saline, particularly early in the experiment. Total area under the curve was also clearly lower in analog 43 mice.

The test system of test [4] is ZDF diabetic rats. Description: 21 days repeated administration in diabetic ZDF rats (food intake, OGTT, metabolic parameters). Type of test: in vivo. How it is done:
Rats were subjected to a 21-day food intake experiment. ZDF rats were IP injected with either phosphate-buffered saline pH6 (control) or compound 43 or 52 at a dose of 1 and 5 mg/kg (n=8), twice a day for 21 days. After 21 days of treatment, rats were fasted overnight and OGTT was performed. After initial blood glucose measurement, 2 g/kg glucose solution was administered by oral gavage. Blood glucose was then measured at 15, 30, 60, 90, 120 and 180 min.
NMRI mice, C57BL/6 mice, and Wistar rats (AnLab, Prague, Czech Republic) were housed in a temperature of 23° C. and a daily cycle of 12 h light and dark (light from 6:00). They were given ad libitum water and a standard chow diet that contained 25, 9 and 66% of calories of protein, fat and carbohydrate respectively. Energy content of the feed was 3.4 kcal/g (St-1, Mlýn Kocanda, Czech Republic). Db/db mice and their controls (C57BL/6 background) were obtained from Taconic (Denmark), housed under the same conditions as described above, and fed by Altromin (Taconic, Denmark). ZDF-Lepr^fa/Crl, diabetic fa/fa male rats were obtained from Charles River (France), housed under same conditions as described above, and fed with a Purina 5008 diet (IPS Product Supplies Limited, UK). All experiments followed the ethical guidelines for animal experiments and the law of the Czech Republic Nr. 246/1992.
The ZDF rats were treated with vehicle or analogs 43 and 52 (1 and 5 mg/kg IP) dissolved in phosphate buffered saline, pH 6, twice daily for 21 days and sacrificed on day 22. Food intake was measured daily up to day 22. Leptin, insulin, cholesterol and HbA1c levels were measured on day 21. Glucose tolerance test (OGTT) was also performed on day 21.
Rats were subjected to a 21-day food intake experiment. ZDF rats were IP injected with either phosphate-buffered saline pH6 (control) or compound 43 or 52 at a dose of 1 and 5 mg/kg (n=8), twice a day for 21 days. After 21 days of treatment, rats were fasted overnight and OGTT was performed. After initial blood glucose measurement, 2 g/kg glucose solution was administered by oral gavage. Blood glucose was then measured at 15, 30, 60, 90, 120 and 180 min. […] The statistical significance, denoted by the asterisk (*), was *P<0.05.

Setting [5] is: ZDF rats, 1 mg/kg IP twice daily.
Setting [6] is: ZDF rats, 5 mg/kg IP twice daily.
The mark [7] stands for this setting: ZDF rats, day 21, 1 mg/kg IP twice daily.
[8] abbreviates: ZDF rats, day 21, 5 mg/kg IP twice daily.

Take `CCCCCCCCCCCCCCCC(=O)N[C@@H](CO)C(=O)N[C@@H](CCCNC(=N)N)C(=O)N[C@H](C(=O)N[C@@H](Cc1c[nH]cn1)C(=O)N[C@@H](CCCNC(=N)N)C(=O)N[C@@H](Cc1c[nH]cn1)C(=O)N[C@@H](CO)C(=O)N[C@@H](CCSC)C(=O)N[C@@H](CCC(=O)O)C(=O)N[C@H](C(=O)N[C@@H](CCCNC(=N)N)C(=O)N[C@H](C(=O)N1CCC[C@H]1C(=O)N[C@@H](CC(=O)O)C(=O)N[C@H](C(=O)N[C@@H](CC(N)=O)C(=O)N1CCC[C@H]1C(=O)N[C@@H](C)C(=O)N[C@@H](Cc1c[nH]c2ccccc12)C(=O)N[C@@H](Cc1ccc(O)cc1)C(=O)N[C@@H](C)C(=O)N[C@@H](CO)C(=O)N[C@@H](CCCNC(=N)N)C(=O)NCC(=O)N[C@H](C(=O)N[C@@H](CCCNC(=N)N)C(=O)N1CCC[C@H]1C(=O)N[C@H](C(=O)NCC(=O)N[C@@H](CCCNC(=N)N)C(=O)N[C@@H](Cc1ccccc1)C(N)=O)C(C)C)[C@@H](C)CC)[C@@H](C)CC)[C@@H](C)O)[C@@H](C)CC)[C@@H](C)O` [Analog 43]: the “% of PrRP31, GPR10 human receptor transfected in CHO cells” value in test [1] (affinity relative to PrRP31) stood at 90%. Further, in test [1] (human GPR10 receptor), the “Displacement of human 125I-PrRP binding” value is listed as “nmol·l^−1 range”. Besides, the “IPGTT glucose level at end of experiment (420 min)” value in test [2] is recorded as “significantly lower”. Besides, in test [3], the “IPGTT glucose levels” value is recorded as “lower” and the “IPGTT total area under the curve” value is “clearly lower”. Moreover, in test [4] (5 mg/kg IP twice daily, vs vehicle), the “Food intake in free fed ZDF diabetic rats” value is “significantly lowered”. Further, in test [4] (setting [5]), the “Cumulative food intake Day 1” value was determined as 40.8 ± 2.1 g, the “Cumulative food intake Day 1-7” value is 299.9 ± 8.9 g, the “Cumulative food intake Day 1-14” value turned out to be 572.5 ± 15.5 g and the “Cumulative food intake Day 1-21” value was found to be 817.7 ± 22.1 g. Also, in test [4] (setting [6]), the “Cumulative food intake Day 1” value stood at 34.2 g, the “Cumulative food intake Day 1-7” value is recorded as 273.3 ± 20.4** g, the “Cumulative food intake Day 1-14” value was 528.9 ± 36.0** g and the “Cumulative food intake Day 1-21” value was 768.2 g. The “OGTT blood glucose levels” value in test [4] (ZDF rats, 5 mg/kg twice daily for 21 days) was “significant lowering”. The “Blood cholesterol levels” value in test [4] (ZDF rats, 1 and 5 mg/kg twice daily, vs controls) is listed as “significantly lowered”. Further, in test [4] (setting [7]), the Cholesterol was 3.10 ± 0.12* mmol/l, the Insulin amounted to 267.69 ± 40.69 pmol/L and the Leptin worked out at 13297 ± 921 pg/mL. Besides, in test [4] (setting [8]), the Cholesterol is 2.91 ± 0.12** mmol/l, the Insulin stood at 271.84 ± 34.00 pmol/L and the Leptin amounted to 16560 ± 4843 pg/mL.

(Values after patent US10350271B2, “Lipidated peptides for lowering blood glucose” (USTAV ORGANICKE CHEMIE A BIOCHEMIE AKADEMIE VED CR, V.V.I., priority 2014, dated 2019).)
